These results are taken from patent US10774076B2, “Benzazole compounds and methods for making and using the compounds” (Rigel Pharmaceuticals, Inc., priority 2015, dated 2020).

Each structure is given as a SMILES string.

One experiment deals with IL23-p19. The experiment is described as follows: Compound screening using DC cells: LPS-induced IL-23 (p19/p40) ELISA in IFNγ-primed dendritic cells differentiated from human PBMC. In kind it is cell-based. The conditions noted are these: Dendritic cell, human PBMC-derived dendritic cells, LPS 1 μg/ml, 18 hours, 10 pt. Here is the method: Compound Screening Using DC Cells
Human PBMC cells (400 million) obtained from the vendor were transferred into a T-175 flask containing 15 ml RPMI media (10% FBS) and incubate for 2 hours at 37° C. After 2 hours, the media including floating cells was aspirated out carefully and 12 ml of fresh RPMI media (10% FBS) containing GMCSF (100 ng/ml) and IL4 (20 ng/ml) was added, and the flask was kept in a 37° C. incubator for 7 days.
After 3 days, fresh GMCSF (100 ng/ml) and IL4 (20 ng/ml) were added to the flask and the incubation continued. After 7 days, the fully differentiated cells were harvested by spinning down (1200 rpm/5 min) and aspirating the media. The cells were suspended in fresh RPMI media (10% FBS) containing 50 ng/ml IFNγ (1000 U/ml) and then plated (50K/well in 100 μl) onto a white clear bottom 96 well plate and left in a 37° C. incubator for 24 hours.
After 24 hours incubation, 100 μl of RPMI media was added containing 2× concentrated test compound per well to the above cell-culture media (final concentration becomes 1×) and the plates were pre-incubated for 1 hour at 37° C. before stimulating with LPS.
After 1 hour compound pre-incubation, 10 μl per well of 20× concentrated LPS solution in RPMI media was added to give a final concentration of 1 μg/ml. The mixture was shaken and incubated the plates at 37° C. for an additional 18 hours.
155 μl of the supernatant was harvested from each well carefully (without the tip touching the bottom of the well) and to the remaining 50 μl/well of the cell culture plate was added 50 μl of Cell Titer Glo reagent. The mixture was incubated for 1-2 minutes on a shaker and the plate was read for luminescence intensity to determine the compound cytotoxicity. The cell culture supernatant collected above was used to carry out IL23 ELISA (65 μl—Supernatant) and IL10 ELISA (90 μl—Supernatant) as described below.
Human IL-23 (p19/p40) ELISA Protocol (e-Biosciences)
To 10.5 ml PBS add 50 μl of anti-IL23 (p19) was added capture antibody (2.5 μg/ml). The mixture was mixed well and 100 μl of the coating solution was added to each well of the 96 well white plates from Pierce. The wells were covered and incubated overnight at 4° C.
The anti-IL23 (p19)-antibody-coated plates were washed 2× using TBST (use plate washer) and blocked using 200 μl of 0.5% Casein for 1.5-2 hours at room temperature with shaking.
The plates were washed 2× using TBST and the supernatant was transferred (65 μl/well) to the above pre-blocked/IL23(p19)-antibody-coated 96 well plate, and incubated at room temperature for 1.5 hours with shaking.
The plates were washed 4× using TBST (plate washer) and 100 μl/well detection antibody solution prepared from 2 μl of biotin labeled anti-IL-12 (p40/p70) antibody in 11 ml 1% BSA/PBS solution (I-5000 dilution) was added. The plates were incubated for 1 hour with shaking at Room temperature.
Again, the plates were washed 4× with TBST and 100 μl of HRP labeled Streptavidin (R&D Systems) solution (10 μl/10 ml 1% BSA solution) was added, and the plates were incubated at room temperature for another 45 minutes with shaking.
After 45 minutes, the plates were washed with TBST 4× and 100 ul/well Super Signal ELISA Pico Chemiluminescent Substrate from Pierce (3.5 ml A+3.5 ml B+3.5 ml MQ water) was added. The plates were shaken for 1-2 minutes then read on a plate reader.
(An ELISA detects its analyte on a solid surface through an enzyme-linked reagent.)

For a further experiment, the system named is IL23p19. The experiment is described as follows: LPS Induced IL23p19 in THP-1 Cells (with IFNγ Primed) Assay. In kind it is cell-based. The conditions noted are these: Homo sapiens, IFNγ primed (50 ng/mL), LPS 1 ug/mL, 18 hours, 10 pt, read-out: IL23-p19 ELISA, THP1-IFNy, LPS, 10 pt EC50. In a few lines:
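IFNγ-primed (50 ng/mL, ~18 h) THP-1 cells in RPMI/10% FBS pre-incubated 1 h with serially diluted compound, then stimulated 18 h at 37 °C with 1 ug/mL LPS. Supernatant IL-23p19 quantified by chemiluminescent sandwich ELISA (anti-IL-12 p40/p70 detection); EC50 from curve fit. Toxicity checked by Cell Titer Glo.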

The EC50 is the midpoint of the concentration-response curve. Turning to `O=C(Nc1cc2oc(N3CCOCC3)nc2cc1N1CCCC(F)C1)c1csc(-c2cn[nH]c2)n1` (stereo not drawn) [Compound I-40, N-(5-(3-fluoropiperidin-1-yl)-2-morpholinobenzo[d]oxazol-6-yl)-2-(1H-pyrazol-4-yl)thiazole-4-carboxamide], the results for the EC50 in the experiment on IL23-p19 and in the experiment on IL23p19 were 41 nM and 25 nM, respectively.

On to `Cc1cc(-c2nc(C(=O)Nc3cc4oc(N5CCOCC5)nc4cc3N3CCCC(F)C3)cs2)ccn1` (stereo not drawn) [Compound I-41, N-(5-(3-fluoropiperidin-1-yl)-2-morpholinobenzo[d]oxazol-6-yl)-2-(2-methylpyridin-4-yl)thiazole-4-carboxamide], for which the EC50 in the experiment with IL23-p19 turned out to be 2580 nM; in the experiment with IL23p19, 147 nM.

Regarding `O=C(Nc1cc2oc(N3CCOCC3)nc2cc1N1CCCC(F)(F)C1)c1ccc(-c2cn[nH]c2)o1` [Compound I-42, N-(5-(3,3-difluoropiperidin-1-yl)-2-morpholinobenzo[d]oxazol-6-yl)-5-(1H-pyrazol-4-yl)furan-2-carboxamide], the EC50 in the experiment on IL23-p19 turned out to be 84.8 nM; in the experiment with IL23p19 it was 60.6 nM.

With `Cc1cc(-c2ccc(C(=O)Nc3cc4oc(N5CCOCC5)nc4cc3N3CCCC(F)(F)C3)o2)ccn1` [Compound I-43, N-(5-(3,3-difluoropiperidin-1-yl)-2-morpholinobenzo[d]oxazol-6-yl)-5-(2-methylpyridin-4-yl)furan-2-carboxamide], the EC50 with IL23-p19 was 2620 nM; in the experiment with IL23p19 it was 344 nM.

With `O=C(Nc1cc2oc(N3CCOCC3)nc2cc1N1CCCC(F)(F)C1)c1csc(-c2cn[nH]c2)n1` [Compound I-44, N-(5-(3,3-difluoropiperidin-1-yl)-2-morpholinobenzo[d]oxazol-6-yl)-2-(1H-pyrazol-4-yl)thiazole-4-carboxamide], the EC50 with IL23-p19 stood at 101 nM; in the experiment on IL23p19, 88.7 nM.

As to `Cc1cc(-c2nc(C(=O)Nc3cc4oc(N5CCOCC5)nc4cc3N3CCCC(F)(F)C3)cs2)ccn1` [Compound I-45, N-(5-(3,3-difluoropiperidin-1-yl)-2-morpholinobenzo[d]oxazol-6-yl)-2-(2-methylpyridin-4-yl)thiazole-4-carboxamide], the EC50 in the experiment with IL23-p19 is 402 nM; in the experiment with IL23p19, 342 nM.

On to `O=C(Nc1cc2oc(N3CCOCC3)nc2cc1N1CCCC1)c1ccc(-c2cn[nH]c2)o1` [Compound I-46, N-(2-morpholino-5-(pyrrolidin-1-yl)benzo[d]oxazol-6-yl)-5-(1H-pyrazol-4-yl)furan-2-carboxamide], for which the EC50 stood at 37.5 nM with IL23-p19 and 58.7 nM in the experiment on IL23p19.

Regarding `O=C(Nc1cc2oc(N3CCOCC3)nc2cc1N1CCCC1)c1csc(-c2cn[nH]c2)n1` [Compound I-47, N-(2-morpholino-5-(pyrrolidin-1-yl)benzo[d]oxazol-6-yl)-2-(1H-pyrazol-4-yl)thiazole-4-carboxamide], the EC50 in the experiment with IL23-p19 worked out at 58 nM; with IL23p19 it was 21.3 nM.

Regarding `O=C(Nc1cc2oc(N3CCOCC3)nc2cc1N1CCOCC1)c1ccc(-c2cn[nH]c2)o1` [Compound I-48, N-(2,5-dimorpholinobenzo[d]oxazol-6-yl)-5-(1H-pyrazol-4-yl)furan-2-carboxamide], the 50% effective concentration (EC50) in the experiment with IL23-p19 was found to be 123 nM; in the experiment with IL23p19, 58.5 nM.

For `O=C(Nc1cc2oc(N3CCOCC3)nc2cc1N1CCOCC1)c1csc(-c2cn[nH]c2)n1` [Compound I-49, N-(2,5-dimorpholinobenzo[d]oxazol-6-yl)-2-(1H-pyrazol-4-yl)thiazole-4-carboxamide], the EC50 in the experiment on IL23-p19 was 48.1 nM; in the experiment with IL23p19, 50.4 nM.

Regarding `COCCN(C)c1nc2cc(N3CCCCC3)c(NC(=O)c3ccc(-c4cn[nH]c4)o3)cc2o1` [Compound I-50, N-(2-((2-methoxyethyl)(methyl)amino)-5-(piperidin-1-yl)benzo[d]oxazol-6-yl)-5-(1H-pyrazol-4-yl)furan-2-carboxamide], the EC50 in the experiment on IL23-p19 came out at 75.7 nM; in the experiment on IL23p19, 133 nM.

Regarding `COCCN(C)c1nc2cc(N3CCCCC3)c(NC(=O)c3csc(-c4cn[nH]c4)n3)cc2o1` [Compound I-51, N-(2-((2-methoxyethyl)(methyl)amino)-5-(piperidin-1-yl)benzo[d]oxazol-6-yl)-2-(1H-pyrazol-4-yl)thiazole-4-carboxamide], the results for the concentration giving a half-maximal response (EC50) with IL23-p19 and in the experiment with IL23p19 were 41.1 nM and 74.2 nM, respectively.

Regarding `O=C(Nc1cc2oc(NCCN3CCOCC3)nc2cc1N1CCCCC1)c1csc(-c2cn[nH]c2)n1` [Compound I-52, N-(2-((2-morpholinoethyl)amino)-5-(piperidin-1-yl)benzo[d]oxazol-6-yl)-2-(1H-pyrazol-4-yl)thiazole-4-carboxamide], the EC50 with IL23-p19 was found to be 37.1 nM; in the experiment on IL23p19, 20 nM.

Regarding `CN(CCN1CCOCC1)c1nc2cc(N3CCCCC3)c(NC(=O)c3ccc(-c4cn[nH]c4)o3)cc2o1` [Compound I-53, N-(2-(methyl(2-morpholinoethyl)amino)-5-(piperidin-1-yl)benzo[d]oxazol-6-yl)-5-(1H-pyrazol-4-yl)furan-2-carboxamide], the EC50 with IL23-p19 was 121 nM; in the experiment on IL23p19 it was 180 nM.

With `CN(CCN1CCOCC1)c1nc2cc(N3CCCCC3)c(NC(=O)c3csc(-c4cn[nH]c4)n3)cc2o1` [Compound I-54, N-(2-(methyl(2-morpholinoethyl)amino)-5-(piperidin-1-yl)benzo[d]oxazol-6-yl)-2-(1H-pyrazol-4-yl)thiazole-4-carboxamide], the figures for the EC50 in the experiment with IL23-p19 and in the experiment on IL23p19 were 60.3 nM and 106 nM, respectively.
